In patent US9206184B2, “Disubstituted benzothienyl-pyrrolotriazines and uses thereof” (BAYER INTELLECTUAL PROPERTY GmbH, priority 2011, dated 2015):
Counter-ions that a name gives are not always drawn.

What follows are compounds tested against human FGFR-1 (Homo sapiens, UniProt P11362) (assay: FGFR-1 high ATP kinase assay (TR-FRET)). Conditions: 2 mM ATP; 15 min pre-incubation with enzyme; compounds of the invention.
Type: biochemical

Chain of human FGFR-1 (P11362 22-822 limits assumed): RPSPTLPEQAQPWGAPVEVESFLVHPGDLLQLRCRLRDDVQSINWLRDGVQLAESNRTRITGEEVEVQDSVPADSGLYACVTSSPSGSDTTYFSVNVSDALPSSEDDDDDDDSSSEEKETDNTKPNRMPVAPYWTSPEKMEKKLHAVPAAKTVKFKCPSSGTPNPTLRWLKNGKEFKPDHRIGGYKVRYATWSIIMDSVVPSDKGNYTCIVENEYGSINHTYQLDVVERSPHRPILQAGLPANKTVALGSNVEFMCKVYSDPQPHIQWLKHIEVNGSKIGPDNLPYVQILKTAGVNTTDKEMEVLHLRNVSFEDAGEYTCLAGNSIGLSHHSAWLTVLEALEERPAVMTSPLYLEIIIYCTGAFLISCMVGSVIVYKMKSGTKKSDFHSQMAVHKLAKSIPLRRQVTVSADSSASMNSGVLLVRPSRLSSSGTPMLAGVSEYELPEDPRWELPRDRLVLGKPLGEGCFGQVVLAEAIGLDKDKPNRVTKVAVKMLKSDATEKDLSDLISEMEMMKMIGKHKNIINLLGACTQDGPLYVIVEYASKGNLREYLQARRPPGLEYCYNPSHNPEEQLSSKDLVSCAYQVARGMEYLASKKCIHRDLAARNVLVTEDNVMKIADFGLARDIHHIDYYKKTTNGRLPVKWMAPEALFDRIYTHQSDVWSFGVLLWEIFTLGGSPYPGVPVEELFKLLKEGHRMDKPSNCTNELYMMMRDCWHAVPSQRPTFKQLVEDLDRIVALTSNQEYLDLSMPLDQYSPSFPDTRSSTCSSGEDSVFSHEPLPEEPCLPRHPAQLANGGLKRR

| IC50 [nM] | Structure (SMILES) |
| --- | --- |
| 8.7 | CCOCc1c(-c2cc3cc(C)cc(OC)c3s2)c2c(N)ncnn2c1CN1CCNC(=O)C1C (centres unmarked) [Example 105] |
| 8.4 | CCOCc1c(-c2cc3cc(C)cc(OC)c3s2)c2c(N)ncnn2c1C(N)=O [Example 109] |
| 17.5 | CCOCc1c(-c2cc3cc(C)cc(OC)c3s2)c2c(N)ncnn2c1C(=O)NC [Example 110] |
| 27 | CCNC(=O)c1c(COCC)c(-c2cc3cc(C)cc(OC)c3s2)c2c(N)ncnn12 [Example 111] |
| 42.1 | CCOCc1c(-c2cc3cc(C)cc(OC)c3s2)c2c(N)ncnn2c1C(=O)N1CCCCO1 [Example 112] |
| 52.7 | CCOCc1c(-c2cc3cc(C)cc(OC)c3s2)c2c(N)ncnn2c1C(=O)N1CCC(C(N)=O)CC1 [Example 113] |
| 24.9 | CCOCc1c(-c2cc3cc(C)cc(OC)c3s2)c2c(N)ncnn2c1C(=O)NC1CC1 [Example 115] |
| 3.7 | CCOCc1c(-c2cc3cc(C)cc(OC)c3s2)c2c(N)ncnn2c1C(=O)N[C@H]1CCNC1=O [Example 116] |
| 6.8 | CCOCc1c(-c2cc3cc(C)cc(OC)c3s2)c2c(N)ncnn2c1C(=O)N1CCC(O)C1 (centres unmarked) [Example 118] |
| 18.9 | CCOCc1c(-c2cc3cc(C)cc(OC)c3s2)c2c(N)ncnn2c1C(=O)N1CC(F)(F)C1 [Example 122] |
| 25.1 | CCOCc1c(-c2cc3cc(C)cc(OC)c3s2)c2c(N)ncnn2c1C(=O)N1CCS(=O)(=O)CC1 [Example 123] |
| 27.3 | COCc1c(-c2cc3cc(OC)cc(OC)c3s2)c2c(N)ncnn2c1CN1CCNC(=O)C1 [Example 124, 4-{[4-Amino-5-(5,7-dimethoxy-1-benzothiophen-2-yl)-6-(methoxymethyl)pyrrolo[2,1-f][1,2,4]-triazin-7-yl]methyl}piperazin-2-one] |
| 5 | COc1cc(C)cc2cc(-c3c(CN4CCNC(=O)C4)c(CO)n4ncnc(N)c34)sc12 [Example 125, 4-{[4-Amino-7-(hydroxymethyl)-5-(7-methoxy-5-methyl-1-benzothiophen-2-yl)pyrrolo[2,1-f]-[1,2,4]triazin-6-yl]methyl}piperazin-2-one] |

Further lines, the compound ahead of its results:

| Structure (SMILES) | IC50 [nM] |
| --- | --- |
| CCOCc1c(-c2cc3cc(C)cc(OC)c3s2)c2c(N)ncnn2c1CN[C@@H]1CCNC1=O [Example 8, (3R)-3-({[4-Amino-6-(ethoxymethyl)-5-(7-methoxy-5-methyl-1-benzothiophen-2-yl)pyrrolo-[2,1-f][1,2,4]triazin-7-yl]methyl}amino)pyrrolidin-2-one] | 9.4 |
| CCOCc1c(-c2cc3cc(C)cc(OC)c3s2)c2c(N)ncnn2c1CN1CCOCC1 [Example 10, 6-(Ethoxymethyl)-5-(7-methoxy-5-methyl-1-benzothiophen-2-yl)-7-(morpholin-4-ylmethyl)pyrrolo[2,1-f][1,2,4]triazin-4-amine] | 12.7 |
| COc1cc(C)cc2cc(-c3c(CO)c(CN4CCNCC4)n4ncnc(N)c34)sc12 [Example 12, [4-Amino-5-(7-methoxy-5-methyl-1-benzothiophen-2-yl)-7-(piperazin-1-ylmethyl)pyrrolo[2,1-f]-[1,2,4]triazin-6-yl]methanol bis(formiate)] | 3.3 |
| COCc1c(-c2cc3cc(C)cc(OC)c3s2)c2c(N)ncnn2c1CN1CCNCC1 [Example 17, 6-(Methoxymethyl)-5-(7-methoxy-5-methyl-1-benzothiophen-2-yl)-7-(piperazin-1-ylmethyl)pyrrolo[2,1-f][1,2,4]triazin-4-amine formiate] | 0.9 |
| CCCCOCc1c(-c2cc3cc(C)cc(OC)c3s2)c2c(N)ncnn2c1CN1CCNCC1 [Example 23, 6-(Butoxymethyl)-5-(7-methoxy-5-methyl-1-benzothiophen-2-yl)-7-(piperazin-1-ylmethyl)pyrrolo-[2,1-f][1,2,4]triazin-4-amine formiate] | 17.9 |
| CCCOCc1c(-c2cc3cc(C)cc(OC)c3s2)c2c(N)ncnn2c1CN1CCNCC1 [Example 24, 5-(7-Methoxy-5-methyl-1-benzothiophen-2-yl)-7-(piperazin-1-ylmethyl)-6-(propoxymethyl)pyrrolo[2,1-f][1,2,4]triazin-4-amine bis(formiate)] | 1.3 |
| COc1cc(C)cc2cc(-c3c(COC(C)C)c(CN4CCNCC4)n4ncnc(N)c34)sc12 [Example 27, 6-(Isopropoxymethyl)-5-(7-methoxy-5-methyl-1-benzothiophen-2-yl)-7-(piperazin-1-ylmethyl)pyrrolo[2,1-f][1,2,4]triazin-4-amine formiate] | 1.3 |
| COC(=O)COCc1c(-c2cc3cc(C)cc(OC)c3s2)c2c(N)ncnn2c1CN1CCNCC1 [Example 31, Methyl{[4-amino-5-(7-methoxy-5-methyl-1-benzothiophen-2-yl)-7-(piperazin-1-ylmethyl)pyrrolo[2,1-f][1,2,4]triazin-6-yl]methoxy}acetate] | 1.5 |
| CNCc1c(-c2cc3cc(C)cc(OC)c3s2)c2c(N)ncnn2c1CN1CCNCC1 [Example 36, 5-(7-Methoxy-5-methyl-1-benzothiophen-2-yl)-6-[(methylamino)methyl]-7-(piperazin-1-ylmethyl)pyrrolo[2,1-f][1,2,4]triazin-4-amine trihydrochloride] | 3 |
| CCN(CC)Cc1c(-c2cc3cc(C)cc(OC)c3s2)c2c(N)ncnn2c1CN1CCNCC1 [Example 43, 6-[(Diethylamino)methyl]-5-(7-methoxy-5-methyl-1-benzothiophen-2-yl)-7-(piperazin-1-ylmethyl)pyrrolo[2,1-f][1,2,4]triazin-4-amine trihydrochloride] | 8.6 |
| COc1cc(C)cc2cc(-c3c(-c4cnco4)c(CN4CCNCC4)n4ncnc(N)c34)sc12 [Example 61, 5-(7-Methoxy-5-methyl-1-benzothiophen-2-yl)-6-(1,3-oxazol-5-yl)-7-(piperazin-1-ylmethyl)pyrrolo[2,1-f][1,2,4]triazin-4-amine trihydrochloride] | 0.5 |
| CCOCc1c(-c2cc3cc(C)cc(OC)c3s2)c2c(N)ncnn2c1CN1CCNC1=O [Example 87, 1-{[4-Amino-6-(ethoxymethyl)-5-(7-methoxy-5-methyl-1-benzothiophen-2-yl)pyrrolo[2,1-f]-[1,2,4]triazin-7-yl]methyl}imidazolidin-2-one] | 14.1 |
| COCc1c(-c2cc3cccc(OC)c3s2)c2c(N)ncnn2c1CN1CCNC(=O)C1 [Example 88, 4-{[4-Amino-5-(7-methoxy-1-benzothiophen-2-yl)-6-(methoxymethyl)pyrrolo[2,1-f][1,2,4]triazin-7-yl]methyl}piperazin-2-one] | 79.6 |
| CCOCc1c(-c2cc3cc(C)cc(OC)c3s2)c2c(N)ncnn2c1CN[C@H]1CCNC1=O [Example 93, (3S)-3-({[4-Amino-6-(ethoxymethyl)-5-(7-methoxy-5-methyl-1-benzothiophen-2-yl)pyrrolo[2,1-f]-[1,2,4]triazin-7-yl]methyl}amino)pyrrolidin-2-one] | 5.5 |
| CCOCc1c(-c2cc3cc(C)cc(OC)c3s2)c2c(N)ncnn2c1CN1CCCCO1 [Example 94] | 81.9 |
| CCOCc1c(-c2cc3cc(C)cc(OC)c3s2)c2c(N)ncnn2c1CN1CCCC1 [Example 96] | 54.5 |
| CCOCc1c(-c2cc3cc(C)cc(OC)c3s2)c2c(N)ncnn2c1CN1CC(O)C1 [Example 97] | 16.4 |
| CCOCc1c(-c2cc3cc(C)cc(OC)c3s2)c2c(N)ncnn2c1CN1CCN(C2CC2)CC1 [Example 100] | 54.5 |
| CCOCc1c(-c2cc3cc(C)cc(OC)c3s2)c2c(N)ncnn2c1CN1CCC(O)C1 (centres unmarked) [Example 101] | 30.8 |
| CCOCc1c(-c2cc3cc(C)cc(OC)c3s2)c2c(N)ncnn2c1CN1CNC(=O)C1 [Example 104] | 5.6 |

Same assay, conditions: 2 mM ATP; 15 min pre-incubation with enzyme; compounds of the invention; dihydrochloride

| Structure (SMILES) | IC50 [nM] |
| --- | --- |
| CCOCc1c(-c2cc3cc(C)cc(OC)c3s2)c2c(N)ncnn2c1CN[C@@H]1CCNC1=O [Example 7, (3R)-3-({[4-Amino-6-(ethoxymethyl)-5-(7-methoxy-5-methyl-1-benzothiophen-2-yl)pyrrolo-[2,1-f][1,2,4]triazin-7-yl]methyl}amino)pyrrolidin-2-one dihydrochloride] | 4.2 |

What follows are compounds tested against human FGFR-3 (Homo sapiens (Human), UniProt P22607) (assay: FGFR-3 kinase assay (TR-FRET)). Conditions: 10 μM ATP; 15 min pre-incubation with enzyme; compounds of the invention.
Type: biochemical

Chain of human FGFR-3 (P22607 397-806): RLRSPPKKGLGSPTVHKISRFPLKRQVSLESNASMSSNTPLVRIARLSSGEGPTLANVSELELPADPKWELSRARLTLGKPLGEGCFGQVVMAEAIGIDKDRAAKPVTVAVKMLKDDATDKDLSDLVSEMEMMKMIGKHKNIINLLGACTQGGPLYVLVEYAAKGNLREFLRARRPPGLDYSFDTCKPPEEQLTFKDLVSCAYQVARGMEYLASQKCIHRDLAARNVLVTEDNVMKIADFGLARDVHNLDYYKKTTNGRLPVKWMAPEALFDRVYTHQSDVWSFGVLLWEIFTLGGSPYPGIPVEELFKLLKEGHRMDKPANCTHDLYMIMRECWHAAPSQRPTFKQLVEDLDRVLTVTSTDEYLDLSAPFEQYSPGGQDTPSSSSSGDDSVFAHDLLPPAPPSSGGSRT

| Structure (SMILES) | IC50 [nM] |
| --- | --- |
| COCc1c(-c2cc3cc(C)cc(OC)c3s2)c2c(N)ncnn2c1CN[C@@H]1CCNC1=O [Example 4, (3R)-3-({[4-Amino-6-(methoxymethyl)-5-(7-methoxy-5-methyl-1-benzothiophen-2-yl)pyrrolo-[2,1-f][1,2,4]triazin-7-yl]methyl}amino)pyrrolidin-2-one] | 24.8 |
| CCOCc1c(-c2cc3cc(C)cc(OC)c3s2)c2c(N)ncnn2c1CN1CCNC(=O)C1 [Example 5, 4-{[4-Amino-6-(ethoxymethyl)-5-(7-methoxy-5-methyl-1-benzothiophen-2-yl)pyrrolo[2,1-f]-[1,2,4]triazin-7-yl]methyl}piperazin-2-one] | 12.1 |
| COc1cc(C)cc2cc(-c3c(CNC4CCC4)c(CN4CCNCC4)n4ncnc(N)c34)sc12 [Example 44, 6-[(Cyclobutylamino)methyl]-5-(7-methoxy-5-methyl-1-benzothiophen-2-yl)-7-(piperazin-1-ylmethyl)pyrrolo[2,1-f][1,2,4]triazin-4-amine trihydrochloride] | 6.1 |

Same assay, conditions: 10 μM ATP; 15 min pre-incubation with enzyme; compounds of the invention; dihydrochloride

| Structure (SMILES) | IC50 [nM] |
| --- | --- |
| COCc1c(-c2cc3cc(C)cc(OC)c3s2)c2c(N)ncnn2c1CN[C@@H]1CCNC1=O [Example 3, (3R)-3-({[4-Amino-6-(methoxymethyl)-5-(7-methoxy-5-methyl-1-benzothiophen-2-yl)pyrrolo-[2,1-f][1,2,4]triazin-7-yl]methyl}amino)pyrrolidin-2-one dihydrochloride] | 46.6 |
| CCOCc1c(-c2cc3cc(C)cc(OC)c3s2)c2c(N)ncnn2c1CN1CCNC(=O)C1 [Example 6, 4-{[4-Amino-6-(ethoxymethyl)-5-(7-methoxy-5-methyl-1-benzothiophen-2-yl)pyrrolo-[2,1-f][1,2,4]triazin-7-yl]methyl}piperazin-2-one dihydrochloride] | 28.5 |

Same assay, conditions: 10 μM ATP; comparative prior art compounds, labels are Example No. in WO 2007/061737

| Structure (SMILES) | IC50 [nM] |
| --- | --- |
| Cc1c(-c2nc(C3CCC3)n3ccnc(N)c23)sc2ccccc12 [Example 210 in WO 2007/061737, reference compound] | 554 |
| Nc1nccn2c(C3CCC3)nc(-c3cc4cccc(Cl)c4s3)c12 [Example 233 in WO 2007/061737, reference compound] | 10000 |
